Source: US20260083709A1, “COMBINATION PHARMACOLOGICAL INTERVENTIONS FOR MULTIPLE MECHANISMS OF OBSTRUCTIVE SLEEP APNEA” (APNIMED, INC.(DELAWARE), priority 2019, published 2026)

Legend:
OSA [1] = assay: Acetazolamide effect on loop gain and OSA severity; design: species or system human; conditions: in vivo
Text: Residual events after anatomical interventions can arise as an effect of elevated loop gain. […] Acetazolamide is a respiratory stimulant used in healthy adults at high-altitude (where it augments and stabilizes respiration) and has additionally been administered safely long-term for glaucoma and heart failure.

OSA [2] = conditions: agents administered separately (N=9); cited from earlier work

SMILES | reduction of OSA severity (AHI) (OSA [1]) | reduction of loop gain (OSA [1]) | effect on OSA severity, agents administered separately (OSA [2])
CC(=O)Nc1nnc(S(N)(=O)=O)s1 [acetazolamide] | ~50% | ~50% | 
CNCC[C@@H](Oc1ccccc1C)c1ccccc1 [atomoxetine, Atomoxetine] |  |  | minimal effect
CCN(CC)CC#CCOC(=O)C(O)(c1ccccc1)C1CCCCC1 (stereo not shown) [oxybutynin] |  |  | minimal effect
